From paper PMC6230386, “Gossypol from Cottonseeds Ameliorates Glucose Uptake by Mimicking Insulin Signaling and Improves Glucose Homeostasis in Mice with Streptozotocin-Induced Diabetes” (Oxidative Medicine and Cellular Longevity, 2018) come the findings set out here.

The experiment has as its target α-glucosidase. The experiment is described as follows: pNPG hydrolysis at […] nm; Lineweaver-Burk kinetics. In kind it is biochemical, Saccharomyces cerevisiae.

What is called IC50 is the concentration needed to halve the response being measured.

Compound `Cc1cc2c(C(C)C)c(O)c(O)c(C=O)c2c(O)c1-c1c(C)cc2c(C(C)C)c(O)c(O)c(C=O)c2c1O` [GSP, gossypol] gave an IC50 of 670 ± 440 nM.
